Results taken from patent US11141410B2 (MERCK SHARP & DOHME CORP., priority 2015, dated 2021).

Columns and labels:
MRSA COL (MB5393) [1] = assay: TarO Inhibitor/β-Lactam Synergy Assay (growth, OD600); format: cell-based, Staphylococcus aureus; conditions: for MITC95 TarO inhibitor + 4 μg/mL IPM; Bacteria: SA_MB5393: in combination with 4 μg/mL imipenem (IPM); for MITC95 TarO inhibitor + 8 μg/mL DCX; Bacteria: SA_MB5393: in combination with 8 μg/mL dicloxacillin (DCX)
Experimental: The TarO inhibitor/β-lactam synergy assay was performed to measure the re-sensitization of methicillin-resistant Staphylococci bacteria (MB5393: MRSA COL) to β-lactam antibiotics by TarO inhibitors. MRSA COL is a hospital-acquired penicillinase-negative clinically isolated strain commonly used in Staphylococcus aureus studies and is fully resistant to the antimicrobial bioactivity of β-lactam antibiotics, including but not limited to imipenem and dicloxacillin. […] MRSA COL is fully refractory to β-lactam antibiotic effect at the current clinical breakpoint concentrations and as such MRSA COL is fully viable at these concentrations.
The β-lactam antibiotic concentration was fixed at the clinical breakpoint (imipenem 4 μg/ml or dicloxacillin 8 μg/ml) and the TarO inhibitors were titrated by 2 fold starting from the highest concentration of 200 μM with final DMSO concentration of 2% in the assay. 5×10^5 colony forming unit of MRSA COL in cation-adjusted Mueller Hinton broth (CAMHB) was then mixed and the assay plate was incubated for 20 hours at 37° C. without shaking. After 20 hours, the optical density at 600 nm (OD600) was read for all wells to determine relative growth of MRSA COL.

MRSA COL (MB5393) [2] = assay: as above; format: cell-based; conditions: Staphylococcus aureus, TarO inhibitor alone, >200 μM = 95% growth inhibition not achieved, 20 hours at 37° C., read-out: MITC95 TarO inhibitor alone, Bacteria: SA_MB5393

SMILES	MITC95 TarO inhibitor + 4 μg/mL IPM; Bacteria: SA_MB5393 (MRSA COL (MB5393) [1])	MITC95 TarO inhibitor + 8 μg/mL DCX; Bacteria: SA_MB5393 (MRSA COL (MB5393) [1])	IC95 (MRSA COL (MB5393) [2])
C[C@H]1[C@@H](c2cc(F)cc(C(F)(F)F)c2)OC(=O)N1C(=O)NCc1ccccc1Cl [Example 21, (4S,5R)-N-(2-chlorobenzyl)-5-[3-fluoro-5-(trifluoromethyl)phenyl]-4-methyl-2-oxo-1,3-oxazolidine-3-carboxamide]	0.16 µM	1.73 µM	> 200 µM
C[C@H]1[C@@H](c2cc(F)cc(C(F)(F)F)c2)OC(=O)N1C(=O)NCc1cccc2nccnc12 [Example 22, (4S,5R)-5-[3-fluoro-5-(trifluoromethyl)phenyl]-4-methyl-2-oxo-N-(quinoxalin-5-ylmethyl)-1,3-oxazolidine-3-carboxamide]	0.49 µM	6.25 µM	> 200 µM
C[C@H]1[C@@H](c2cc(F)cc(C(F)(F)F)c2)OC(=O)N1C(=O)NCc1ccnc2ccccc12 [Example 23, (4S,5R)-5-[3-fluoro-5-(trifluoromethyl)phenyl]-4-methyl-2-oxo-N-(quinolin-4-ylmethyl)-1,3-oxazolidine-3-carboxamide]	0.61 µM	4.84 µM	> 200 µM
COc1ccccc1CNC(=O)N1C(=O)O[C@H](c2cccc(C(F)(F)F)c2)[C@@H]1C [Example 24, (4S,5R)-N-(2-methoxybenzyl)-4-methyl-2-oxo-5-[3-(trifluoromethyl)phenyl]-1,3-oxazolidine-3-carboxamide]	0.20 µM	7.29 µM	> 200 µM
C[C@H]1[C@@H](c2cc(F)cc(Br)c2)OC(=O)N1C(=O)NCc1cncc2ccccc12 [Example 25, (4S,5R)-5-(3-bromo-5-fluorophenyl)-N-(isoquinolin-4-ylmethyl)-4-methyl-2-oxo-1,3-oxazolidine-3-carboxamide]	0.22 µM	1.38 µM	> 200 µM
C[C@H]1[C@@H](c2cc(F)cc(C3CC3)c2)OC(=O)N1C(=O)NCc1cncc2ccccc12 [Example 26, (4S,5R)-5-(3-cyclopropyl-5-fluorophenyl)-N-(isoquinolin-4-ylmethyl)-4-methyl-2-oxo-1,3-oxazolidine-3-carboxamide]	0.25 µM	0.99 µM	> 200 µM
C[C@H]1[C@@H](c2cccc(C(C)(F)F)c2)OC(=O)N1C(=O)NCc1cncc2ccccc12 [Example 27, (4S,5R)-5-[3-(1,1-difluoroethyl)phenyl]-N-(isoquinolin-4-ylmethyl)-4-methyl-2-oxo-1,3-oxazolidine-3-carboxamide]	0.39 µM	3.65 µM	> 200 µM
C[C@H]1[C@@H](c2cc(C(F)(F)F)cc(C(F)(F)F)c2)OC(=O)N1C(=O)NCc1ncccc1Br [Example 28, (4S,5R)-5-[3,5-bis(trifluoromethyl)phenyl]-N-[(3-bromopyridin-2-yl)methyl]-4-methyl-2-oxo-1,3-oxazolidine-3-carboxamide]	0.70 µM	4.69 µM	> 200 µM
Cc1nn(C)c(C)c1CNC(=O)N1C(=O)O[C@H](c2cc(F)cc(C(F)(F)F)c2)[C@@H]1C [Example 29, (4S,5R)-5-[3-fluoro-5-(trifluoromethyl)phenyl]-4-methyl-2-oxo-N-[(1,3,5-trimethyl-1H-pyrazol-4-yl)methyl]-1,3-oxazolidine-3-carboxamide]	0.78 µM	5.21 µM	> 200 µM
C[C@H]1[C@@H](c2cc(F)cc(C(F)(F)F)c2)OC(=O)N1C(=O)NCc1cccc2cncnc12 [Example 30, (4S,5R)-5-[3-fluoro-5-(trifluoromethyl)phenyl]-4-methyl-2-oxo-N-(quinazolin-8-ylmethyl)-1,3-oxazolidine-3-carboxamide]	0.68 µM	4.69 µM	> 200 µM
Cc1cccnc1CNC(=O)N1C(=O)O[C@H](c2cc(C(F)(F)F)cc(C(F)(F)F)c2)[C@@H]1C [Example 31, (4S,5R)-5-[3,5-bis(trifluoromethyl)phenyl]-4-methyl-N-[(3-methylpyridin-2-yl)methyl]-2-oxo-1,3-oxazolidine-3-carboxamide]	0.43 µM	8.33 µM	> 200 µM
C[C@H]1[C@@H](c2cc(F)cc(C(F)(F)F)c2)OC(=O)N1C(=O)NCc1ccccc1-n1cccc1 [Example 32, (4S,5R)-5-[3-fluoro-5-(trifluoromethyl)phenyl]-4-methyl-2-oxo-N-[2-(1H-pyrrol-1-yl)benzyl]-1,3-oxazolidine-3-carboxamide]	0.59 µM	4.69 µM	> 200 µM
C[C@H]1[C@@H](c2cccc(C(F)F)c2)OC(=O)N1C(=O)NCc1cncc2ccccc12 [Example 33, (4S,5R)-5-[3-(difluoromethyl)phenyl]-N-(isoquinolin-4-ylmethyl)-4-methyl-2-oxo-1,3-oxazolidine-3-carboxamide]	1.37 µM	9.38 µM	> 200 µM
C[C@H]1[C@@H](c2cc(F)cc(C(F)(F)F)c2)OC(=O)N1C(=O)NCc1ccnc2cccnc12 [Example 34, (4S,5R)-5-[3-fluoro-5-(trifluoromethyl)phenyl]-4-methyl-N-(1,5-naphthyridin-4-ylmethyl)-2-oxo-1,3-oxazolidine-3-carboxamide]	1.95 µM	14.06 µM	> 200 µM
Cc1cnc(F)c(CNC(=O)N2C(=O)O[C@H](c3cc(C(F)(F)F)cc(C(F)(F)F)c3)[C@@H]2C)c1 [Example 35, (4S,5R)-5-[3,5-bis(trifluoromethyl)phenyl]-N-[(2-fluoro-5-methylpyridin-3-yl)methyl]-4-methyl-2-oxo-1,3-oxazolidine-3-carboxamide]	0.10 µM	0.98 µM	> 200 µM
C[C@H]1[C@@H](c2cc(F)cc(C(F)(F)F)c2)OC(=O)N1C(=O)NCc1ccccc1CN(C)C [Example 36, (4S,5R)-N-{2-[(dimethylamino)methyl]benzyl}-5-[3-fluoro-5-(trifluoromethyl)phenyl]-4-methyl-2-oxo-1,3-oxazolidine-3-carboxamide]	6.25 µM	25 µM	> 200 µM
C[C@H]1[C@@H](c2cc(F)cc(C(F)(F)F)c2)OC(=O)N1C(=O)NCc1cccc2ncccc12 [Example 37, (4S,5R)-5-[3-fluoro-5-(trifluoromethyl)phenyl]-4-methyl-2-oxo-N-(quinolin-5-ylmethyl)-1,3-oxazolidine-3-carboxamide]	0.98 µM	2.73 µM	> 200 µM
COc1cccnc1CNC(=O)N1C(=O)O[C@H](c2cc(C(F)(F)F)cc(C(F)(F)F)c2)[C@@H]1C [Example 38, (4S,5R)-5-[3,5-bis(trifluoromethyl)phenyl]-N-[(3-methoxypyridin-2-yl)methyl]-4-methyl-2-oxo-1,3-oxazolidine-3-carboxamide]	1.56 µM	25 µM	> 200 µM
C[C@H]1[C@@H](c2cc(F)cc(C(F)(F)F)c2)OC(=O)N1C(=O)NCc1cccc2cn[nH]c12 [Example 39, (4S,5R)-5-[3-fluoro-5-(trifluoromethyl)phenyl]-N-(1H-indazol-7-ylmethyl)-4-methyl-2-oxo-1,3-oxazolidine-3-carboxamide]	0.78 µM	25 µM	> 200 µM
C[C@H]1[C@@H](c2cc(F)cc(C(F)(F)F)c2)OC(=O)N1C(=O)NCc1cccc2c1C(=O)NC2 [Example 40]	18.75 µM	50 µM	> 200 µM
Cc1cccnc1CCNC(=O)N1C(=O)O[C@H](c2cc(C(F)(F)F)cc(C(F)(F)F)c2)[C@@H]1C [Example 41, (4S,5R)-5-[3,5-bis(trifluoromethyl)phenyl]-4-methyl-N-[2-(3-methylpyridin-2-yl)ethyl]-2-oxo-1,3-oxazolidine-3-carboxamide]	1.56 µM	16.67 µM	> 200 µM
C[C@H]1[C@@H](c2cc(C(F)(F)F)cc(C(F)(F)F)c2)OC(=O)N1C(=O)NCc1cnc2c(c1)CCC2 [Example 42, (4S,5R)-5-[3,5-bis(trifluoromethyl)phenyl]-N-(6,7-dihydro-5H-cyclopenta[b]pyridin-3-ylmethyl)-4-methyl-2-oxo-1,3-oxazolidine-3-carboxamide]	0.78 µM	12.50 µM	> 200 µM
